Tested on: 301 cancer cell lines from different tumor types (OncoPanel; HD Biosciences)
Assay: 2D cell viability inhibition assay (CellTiter-Glo) in cancer cell line panel
Type: cell-based
Settings: Homo sapiens
Method: In a larger screening study, compound 1 was evaluated across a broad cancer cell line panel (OncoPanel; HD Biosciences) composed of 301 cancer cell lines from different tumor types.
2D cell viability inhibition assays were performed in multiwell plates seeded with cells from the panel. After seeding, the plates were cultured overnight in a humidified incubator at 37° C. to promote adherence. Assays were initiated in individual wells by adding either DMSO as a vehicle control, growth media as a blank, or serially diluted compound 1 (10 μM to 0.0005 μM with 1:3 serial dilution). Cultures were incubated for 168 hours after which the number of viable cells in each test well was assessed using the CellTiter-Glo® Luminescent Cell Viability Assay. Luminescence readouts were performed using an EnVision® Multilabel Reader and the compound 1 readouts were normalized to the DMSO control readouts, expressed as a percent of the control. Outliers were flagged out by visual inspection. Percent of control was plotted against the corresponding compound 1 concentration and the absolute IC50 value was determined using four-parameter logistic non-linear regression as the concentration where inhibition was 50% of the control. For maximum inhibition <50%, the absolute IC50 was reported as >10. In addition to EC50 and IC50, AUC was determined and was normalized to the area corresponding to theoretical no-inhibition (the rectangular area defined by the compound dose range and 0 to 100 in y). Emax was recorded as the minimum in y with the compound dose range. For those cell lines where Emax>40, EC50 was manually set to 10 μM. A hierarchical clustering algorithm based on Euclidean distance between the standardized input values and “Ward.D” method as implemented in R hclust function was used to visualize the compound 1 cellular potency data. The sensitive/moderate/resistant calls for each cell line was determined by visually inspecting the resulting clustering dendrogram. All the analyses were done in R Core Team.

## CC(C)c1ccc(N(C)c2ccc3c(c2)OCC[C@H]3CNc2cnccc2C(=O)O)cc1 [Compound 1, 3-({[(4R)-7-{methyl[4-(propan-2-yl)phenyl]amino}-3,4-dihydro-2H-1-benzopyran-4-yl]methyl}amino)pyridine-4-carboxylic acid]
KYSE-30, KYSE30 cell line
  EC50: ≥ 10000 nM
  IC50: 2.43 nM
KYSE-70, 168 h, KYSE70, oesophagus, squamous cell carcinoma, 168 hours
  IC50: > 10000 nM
KYSE-150, KYSE150 cell line
  EC50: 4.41 nM
  IC50: 5.1 nM
KYSE-270, KYSE270 cell line
  EC50: 5.11 nM
  IC50: 5.35 nM
KYSE-410, KYSE410 cell line
  EC50: 5.47 nM
  IC50: 8.25 nM
KYSE-510, KYSE510 cell line
  EC50: 3.42 nM
  IC50: 3.4 nM
Kasumi 1, 168 h, KASUMI1, haematopoietic and lymphoid tissue, acute myeloid leukaemia, 168 hours
  IC50: > 10000 nM
LNCaP, LNCAP cell line
  EC50: 3.54 nM
  IC50: 4.65 nM
LS-411N, LS411N cell line
  EC50: 16.8 nM
  IC50: 16.7 nM
LoVo, LOVO cell line
  IC50: 57.8 nM
Lu-65, LU65 cell line
  EC50: 7.19 nM
  IC50: 10.6 nM
Lu-99, 168 h, LU99, lung, large cell carcinoma, 168 hours
  IC50: > 10000 nM
MC116, MC116 cell line
  EC50: 5.21 nM
  IC50: 4.6 nM
MCF7, MCF7 cell line
  IC50: 435 nM
MDA-MB-157, 168 h, MDAMB157, breast, ductal carcinoma, 168 hours
  IC50: > 10000 nM
MDA-MB-175-VII, 168 h, MDAMB175VII, breast, ductal carcinoma
  IC50: > 10000 nM
MDA-MB-231, 168 h, MDAMB231, breast, NS, 168 hours
  IC50: > 10000 nM
MDA-MB-361, 168 h, MDAMB361, breast, NS, 168 hours
  IC50: > 10000 nM
MDA-MB-415, 168 h, MDAMB415, breast, NS, 168 hours
  IC50: > 10000 nM
MDA-MB-436, 168 h, MDAMB436, breast, NS, 168 hours
  IC50: > 10000 nM
MDA-MB-453, MDAMB453 cell line
  EC50: 8.03 nM
  IC50: 10.4 nM
MDA-MB-468, 168 h, MDAMB468, breast, NS, 168 hours
  IC50: > 10000 nM
MES-SA, MESSA cell line
  EC50: 9 nM
  IC50: 14.3 nM
MIA PaCa-2, MIAPACA2 cell line
  EC50: 5.28 nM
  IC50: 7.02 nM
MKN-1, MKN1 cell line
  EC50: 4.33 nM
  IC50: 5.75 nM
MKN-45, MKN45 cell line
  EC50: 11 nM
  IC50: 13.5 nM
MOLT-4, MOLT4 cell line
  EC50: 0.508 nM
  IC50: 1.25 nM
MV4-11, MV411 cell line
  EC50: 3.92 nM
  IC50: 4.02 nM
Malme-3M, 168 h, MALME3M, skin, NS
  IC50: > 10000 nM
MeWo, 168 h, skin, NS
  IC50: > 10000 nM
NCI-H23, NCIH23 cell line
  EC50: 37.7 nM
  IC50: 42.7 nM
NCI-H69, NCIH69 cell line
  EC50: 7.14 nM
  IC50: 7.09 nM
NCI-H82, NCIH82 cell line
  EC50: 3.31 nM
  IC50: 3.54 nM
NCI-H209, NCIH209 cell line
  EC50: 1.48 nM
  IC50: 1.31 nM
NCI-H358, NCIH358 cell line
  EC50: 3.05 nM
  IC50: 6.57 nM
NCI-H441, 168 h, NCIH441, lung, adenocarcinoma, 168 hours
  IC50: > 10000 nM
NCI-H446, NCIH446 cell line
  EC50: 14.5 nM
  IC50: 119 nM
NCI-H460, NCIH460 cell line
  EC50: 11.1 nM
  IC50: 11.6 nM
NCI-H508, NCIH508 cell line
  EC50: 9.16 nM
  IC50: 10.2 nM
NCI-H520, NCIH520 cell line
  EC50: 5.06 nM
  IC50: 5.9 nM
NCI-H522, NCIH522 cell line
  EC50: 11.5 nM
  IC50: 17.4 nM
NCI-H524, NCIH524 cell line
  EC50: 4.98 nM
  IC50: 6.85 nM
NCI-H596, 168 h, NCIH596, lung, mixed adenosquamous carcinoma, 168 hours
  IC50: > 10000 nM
NCI-H647, NCIH647 cell line
  EC50: 6.04 nM
  IC50: 9.84 nM
NCI-H661, NCIH661 cell line
  EC50: 9.06 nM
  IC50: 9.73 nM
NCI-H716, NCIH716 cell line
  EC50: 5.77 nM
  IC50: 9.51 nM
NCI-H929, NCIH929 cell line
  EC50: 20.6 nM
  IC50: 34.5 nM
NCI-H1048, NCIH1048 cell line
  EC50: 0.508 nM
  IC50: 0.706 nM
NCI-H1092, NCIH1092 cell line
  EC50: 3.93 nM
  IC50: 7.16 nM
NCI-H1155, NCIH1155 cell line
  EC50: 0.884 nM
  IC50: 0.765 nM
NCI-H1299, NCIH1299 cell line
  EC50: 5.38 nM
  IC50: 7.5 nM
NCI-H1355, NCIH1355 cell line
  EC50: ≥ 10000 nM
  IC50: 20.6 nM
NCI-H1395, 168 h, NCIH1395, lung, adenocarcinoma, 168 hours
  IC50: > 10000 nM
NCI-H1436, NCIH1436 cell line
  EC50: ≥ 10000 nM
  IC50: 8.75 nM
NCI-H1437, NCIH1437 cell line
  EC50: 9.48 nM
  IC50: 13.1 nM
NCI-H1563, 168 h, NCIH1563, lung, adenocarcinoma, 168 hours
  IC50: > 10000 nM
NCI-H1573, 168 h, NCIH1573, lung, adenocarcinoma, 168 hours
  IC50: > 10000 nM
NCI-H1623, NCIH1623 cell line
  EC50: 8.13 nM
  IC50: 18.9 nM
NCI-H1650, 168 h, NCIH1650, lung, bronchioloalveolar adenocarcinoma, 168 hours
  IC50: > 10000 nM
NCI-H1666, NCIH1666 cell line
  EC50: 0.508 nM
  IC50: 1.17 nM
NCI-H1694, NCIH1694 cell line
  EC50: 0.508 nM
  IC50: 1.75 nM
NCI-H1703, NCIH1703 cell line
  EC50: 4.88 nM
  IC50: 8.05 nM
NCI-H1734, NCIH1734 cell line
  IC50: > 10000 nM
NCI-H1755, 168 h, NCIH1755, lung, adenocarcinoma, 168 hours
  IC50: > 10000 nM
NCI-H1793, NCIH1793 cell line
  EC50: 8.36 nM
  IC50: 15.3 nM
NCI-H1836, NCIH1836 cell line
  EC50: 4.88 nM
  IC50: 6.07 nM
NCI-H1838, 168 h, NCIH1838, lung, non-small cell carcinoma, 168 hours
  IC50: > 10000 nM
NCI-H1930, NCIH1930 cell line
  EC50: 6.62 nM
  IC50: 20 nM

From US20250134874A1, “PHARMACEUTICAL FORMULATIONS COMPRISING 3-({[(4R)-7-{METHYL[4-(PROPAN-2-YL)PHENYL]AMINO}-3,4-DIHYDRO-2H-1-BENZOPYRAN-4-YL]METHYL}AMINO)PYRIDINE-4-CARBOXYLIC ACID” (TACHYON THERAPEUTICS, INC., priority 2021, published 2025)
